Test results from patent publication US20110087015A1, “Nucleoside and nucleotide having an unnatural base and use thereof” (priority 2003, published 2011).
“Also recorded” adds a separate entry of the source. Read-outs that look alike come from different tables or passages of the source.

Tests used:
[1] = target: T1, Klenow fragment (KF exo−) (Escherichia coli, UniProt P00582, D355A/E357A); type: biochemical, E. coli; details: for efficiency (Vmax/Km) / Km / Vmax: template base N = label; for Vmax: normalized to enzyme concentration 20 nM
T1 construct: Large fragment of DNA polymerase Exonuclease-free Klenow enzyme (Cloned) (Amersham USB); purchased Amersham USB
Description: This example was intended to analyze reaction rate constants in the same Klenow fragment-mediated single nucleotide insertion reaction as shown in Example 2.
More specifically, the reaction primer used was a primer whose 5′-end was fluorescently labeled with 6-FAM (SEQ ID NO: 1, FIG. 10). The primer whose 5′-end was fluorescently labeled was purchased from Applied Biosystems among those commercially available as custom fluorescent primers for GeneScan, and purified by gel electrophoresis. The analysis of reaction products was performed with a DNA sequencer (Applied Biosystems; model ABI377).
Reaction conditions: Template DNA (SEQ ID NO: 2 or 3) (10 μM) and the fluorescently-labeled primer (10 μM), each of which had been dissolved in 2× reaction buffer (100 mM Tris-HCl pH 7.5, 20 mM MgCl2, 2 mM DTT, 100 μg/ml BSA), were heated at 95° C. for 3 minutes and then annealed by quenching to form a duplex between the template and the primer. After this duplex DNA solution was dispensed in 5 μl aliquots, a KF exo^− solution (15-250 nM) diluted with enzyme dilution buffer was added in a volume of 2 μl, followed by incubation at 37° C. for 2 minutes to form a DNA-enzyme complex. The resulting solution was supplemented with 3 μl dNTP solution (any one of A, G, C, T or y) (100 μM-7 mM) and enzymatically reacted at 37° C. (1.5-20 minutes). The reaction was stopped by adding 10 μl of a 95% formamide solution containing 20 mM EDTA (stop solution) and heating at 75° C. for 3 minutes.
The reaction conditions are summarized as follows: 5 μM template-primer duplex, 3-50 nM enzyme and 30-2100 μM dNTP are used in a solution (10 μl). The solution (10 μl) contains 50 mM Tris-HCl (pH 7.5), 10 mM MgCl2, 1 mM DTT and 0.05 mg/ml BSA. The reaction is performed at 37° C. for 1.5-20 minutes.
After aliquot parts of the reaction solutions were diluted 50-fold with the stop solution, the thus diluted reaction solutions (0.5 μl) were each mixed with 3 μl loading solution (deionized formamide:50 mg/mL blue dextran solution containing 25 mM EDTA=5:1), heated at 90° C. for 2 minutes and then quenched on ice. Aliquots (about 0.5 μl) of the resulting solutions were loaded on every other lane of a sequence gel and electrophoresed. The sequence gel (36 cm WTR) has the following composition: 6 M urea, 8% polyacrylamide (acrylamide:bisacrylamide=19:1), and 0.5×TBE. The electrophoresis buffer used was 0.5×TBE. The run module used was GS Run 36C-2400. The electrophoresis time was set to about 1 hour, and peak patterns of the reaction products were analyzed and quantified using GeneScan Software (Version 3.0).
Using the peak heights of the unreacted primer fragment and single nucleotide-inserted DNA fragments, the percentage of each primer elongated by a single nucleotide was determined to calculate enzymological parameters Km and Vmax from Hanes-Woolf plots (Goodman, M. F., Creighton, S., Bloom, L. B., Petruska, J. Crit. Rev. Biochem. Mol. Biol., 28, 83-126 (1993)).

[2] = target: T2, T7 RNA polymerase (Escherichia phage T7, UniProt P00573); assay: Site-selective introduction of ryTP into RNA through transcription; type: biochemical; details: for incorporation efficiency of the substrate y into RNA (transcription efficiency): one unnatural base in template (vT or sT), compared to natural base pairing (AT); for transcription efficiency, two y substrates incorporated into RNA: two adjacent unnatural bases in template (NN=vv or NN=ss)
T2 construct: purchased TAKARA SHUZO CO., LTD (TaKaRa)
Protocol: This example was intended to study site-selective introduction of ryTP into RNA through transcription reaction. […] The DNA primer required for the transcription reaction had the following sequence.
A template and T7prim21 were mixed in 10 mM Tris-HCl (pH 7.6) containing 10 mM NaCl and annealed into a double-stranded form for use in the transcription reaction (FIG. 14). The T7 transcription reaction was performed on 20 μl scale using an enzyme from TAKARA SHUZO CO., LTD [T. Ohtsuki et al., Proc. Natl. Acad. Sci. USA, 98, 4922-4925 (2001)]. More specifically, the transcription reaction was accomplished by incubation at 37° C. for 3 hours in a reaction solution containing 40 mM Tris-HCl pH 8.0, 5 mM DTT, 24 mM MgCl2, 2 mM spermidine, 0.01% TritonX-100, 10 mM GMP, 1 mM NTPs (N=G, C, U, with or without ryTP, as shown in FIGS. 15 and 16), 2 μCi [α-^32P]ATP, 2 μM double-stranded DNA (template and T7prim21), and 2.5 U/μl T7 RNA polymerase (TaKaRa). If the transcription reaction proceeds completely, an RNA product having the following full-length sequence can be obtained.
The reaction solutions were each supplemented with an equal volume of a 10 M urea-containing BPBdye solution and heated at 75° C. for 3 minutes to stop the reaction, followed by electrophoresis on a 20% polyacrylamide-7 M urea gel to confirm products of the transcription reaction. The [α-^32P]ATP-labeled reaction products were analyzed with a bioimaging analyzer (BAS2500, Fuji Photo Film Co., Ltd., Japan). The incorporation efficiency of the substrate y into RNA when using the sT-containing template in transcription with T7 RNA polymerase (FIG. 14) was about 50% to 60%, as compared to natural base pairing (AT). In contrast, when using the vT-containing template, the incorporation efficiency of the substrate y was 96%, which was as high as that of natural base pairing (FIG. 15).

[3] = target: T3, Klenow fragment (Large Fragment E. coli DNA Polymerase I) (Escherichia coli, UniProt P00582); assay: Klenow fragment-mediated elongation reaction (replication); type: biochemical; details: substrates A; for replication with two adjacent unnatural bases in template (35-mer product): G, y, NN=vv or NN=ss
T3 construct: purchased TaKaRa
Description: This example was intended to study selective introduction of y at a site corresponding to v in the complementary DNA strand during Klenow fragment-mediated elongation reaction, rather than single-base incorporation. The reaction primer DNA and template DNA used are shown below.
As in the case of Example 2, the primer was pre-labeled at its 5′-end using […] and then purified by gel electrophoresis. In Experiments 2 and 3, the base y is incorporated as the first base of elongation from the primer. In contrast, in this experiment, v in the template is located at a position corresponding to the severalth base elongated from the primer, and it is therefore possible to study the introduction of y at a site corresponding to v in the complementary DNA strand during elongation reaction.
The template DNA (400 nM) and the primer whose 5′-end was labeled with ^32P (FIG. 11) (400 nM), each of which had been dissolved in 2× reaction buffer (20 mM Tris-HCl pH 7.5, 14 mM MgCl2, 0.2 mM DTT), were heated at 95° C. for 3 minutes and then annealed by quenching to form a duplex. After this duplex DNA solution was dispensed in 5 μl aliquots, 2 μl of a dNTP solution (a combination shown in each lane of FIG. 12 or 13) (50 μM) and 3 μl (0.15 units) of Klenow fragment (KF exo^+; Cloned Klenow Fragment for sequencing (Large Fragment E. coli DNA Polymerase I), purchased from TaKaRa) diluted with water were added to start the enzymatic reaction at 37° C. After incubation for 3 minutes, the enzymatic reaction was stopped by adding 10 μl of a 10 M urea-containing TBE solution and heating at 75° C. for 3 minutes. The reaction conditions are summarized as follows: template/primer 200 nM; KF […] 0.015U/μl; dNTPs 10 μM; reaction at 37° C. for 3 minutes.
Aliquot parts of the reaction solutions were electrophoresed on a 15% polyacrylamide-7 M urea gel and the reaction products were analyzed with a bioimaging analyzer (BAS2500, Fuji Photo Film Co., Ltd., Japan). […]

[4] = target: T4, Klenow fragment (KF exo−), DNA polymerase I lacking 3′→5′ exonuclease activity (Escherichia coli, UniProt P00582, D355A/E357A); assay: Klenow fragment-mediated single nucleotide insertion experiment (replication); type: biochemical, E. coli
T4 construct: Large fragment of DNA polymerase Exonuclease-free Klenow enzyme (Cloned) (Amersham USB); purchased Amersham USB
Description: In this example, E. coli-derived DNA polymerase I lacking 3′→5′ exonuclease activity, i.e., Klenow fragment (KF exo^−) was used to make a comparison of the efficiency for single nucleotide incorporation during replication (i.e., incorporation of 2-oxo-(1H)pyridine (y) into DNA) between v-y base pair (the present invention) and s-y base pair (control).
More specifically, Large fragment of DNA polymerase Exonuclease-free Klenow enzyme (Cloned) (Amersham USB) and 10× reaction buffer attached thereto (500 mM Tris-HCl pH 7.5, 100 mM MgCl2, 10 mM DTT, 0.5 mg/ml BSA) were used. The enzyme concentration of KF exo^− was determined using a Bio-Rad Protein Assay kit (BioRad) for each lot purchased.
The primer for use in the reaction was pre-labeled at its 5′-end using T4 polynucleotide kinase (TaKaRa) and […], and then purified by gel electrophoresis.
Reaction conditions: a mixed solution of template DNA (20 μM, 1 μl), the primer whose 5′-end was labeled with ^32P (5 μM, 4 μl) and 10× reaction buffer (1 μl) was heated at 95° C. for 3 minutes and then annealed by quenching to form a duplex between the template DNA and the primer. A Klenow fragment solution (1 μM) diluted with enzyme dilution buffer (50 mM phosphate buffer pH 7, 50% glycerol, 1 mM DTT) was added in a volume of 2 μl and incubated at 37° C. for 2 minutes, followed by addition of 2 μl dNTP solution (any one of A, G, C, T or y shown in FIG. 8) (100 μM) to start the reaction. After incubation at 37° C. for 2 minutes, 10 μl of a 10 M urea-containing TBE solution was added and heated at 75° C. for 3 minutes to stop the reaction. The reaction conditions are summarized as follows: template/primer 2 μM; KF exo^− 200 nM; dNTP 20 μM; reaction at 37° C. for 2 minutes.
Aliquot parts of the reaction solutions were electrophoresed on a 20% polyacrylamide-7 M urea gel and the reaction products were analyzed with a bioimaging analyzer (BAS2500, Fuji Photo Film Co., Ltd., Japan).

[5] = template/primer 2 μM, KF exo− 200 nM, dNTP 20 μM, 37° C., 2 minutes

T1 sequence (P00582 324-928 D355A/E357A): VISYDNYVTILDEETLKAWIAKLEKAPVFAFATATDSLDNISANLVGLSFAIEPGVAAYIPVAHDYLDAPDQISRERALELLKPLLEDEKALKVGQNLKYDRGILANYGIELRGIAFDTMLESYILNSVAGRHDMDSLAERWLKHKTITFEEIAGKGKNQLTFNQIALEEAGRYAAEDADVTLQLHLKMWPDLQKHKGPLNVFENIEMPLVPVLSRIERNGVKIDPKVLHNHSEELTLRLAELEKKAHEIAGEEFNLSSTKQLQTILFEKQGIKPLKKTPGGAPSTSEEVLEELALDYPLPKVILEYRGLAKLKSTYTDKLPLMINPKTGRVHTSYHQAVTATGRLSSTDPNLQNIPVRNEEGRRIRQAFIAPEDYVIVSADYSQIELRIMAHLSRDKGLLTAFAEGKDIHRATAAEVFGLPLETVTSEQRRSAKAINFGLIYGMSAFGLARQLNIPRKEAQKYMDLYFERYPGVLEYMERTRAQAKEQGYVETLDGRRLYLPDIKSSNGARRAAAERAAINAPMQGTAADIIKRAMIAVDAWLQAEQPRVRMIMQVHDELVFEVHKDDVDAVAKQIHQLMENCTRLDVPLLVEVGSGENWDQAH
T4 sequence (P00582 324-928 D355A/E357A): as above
T2 sequence (P00573 whole entry): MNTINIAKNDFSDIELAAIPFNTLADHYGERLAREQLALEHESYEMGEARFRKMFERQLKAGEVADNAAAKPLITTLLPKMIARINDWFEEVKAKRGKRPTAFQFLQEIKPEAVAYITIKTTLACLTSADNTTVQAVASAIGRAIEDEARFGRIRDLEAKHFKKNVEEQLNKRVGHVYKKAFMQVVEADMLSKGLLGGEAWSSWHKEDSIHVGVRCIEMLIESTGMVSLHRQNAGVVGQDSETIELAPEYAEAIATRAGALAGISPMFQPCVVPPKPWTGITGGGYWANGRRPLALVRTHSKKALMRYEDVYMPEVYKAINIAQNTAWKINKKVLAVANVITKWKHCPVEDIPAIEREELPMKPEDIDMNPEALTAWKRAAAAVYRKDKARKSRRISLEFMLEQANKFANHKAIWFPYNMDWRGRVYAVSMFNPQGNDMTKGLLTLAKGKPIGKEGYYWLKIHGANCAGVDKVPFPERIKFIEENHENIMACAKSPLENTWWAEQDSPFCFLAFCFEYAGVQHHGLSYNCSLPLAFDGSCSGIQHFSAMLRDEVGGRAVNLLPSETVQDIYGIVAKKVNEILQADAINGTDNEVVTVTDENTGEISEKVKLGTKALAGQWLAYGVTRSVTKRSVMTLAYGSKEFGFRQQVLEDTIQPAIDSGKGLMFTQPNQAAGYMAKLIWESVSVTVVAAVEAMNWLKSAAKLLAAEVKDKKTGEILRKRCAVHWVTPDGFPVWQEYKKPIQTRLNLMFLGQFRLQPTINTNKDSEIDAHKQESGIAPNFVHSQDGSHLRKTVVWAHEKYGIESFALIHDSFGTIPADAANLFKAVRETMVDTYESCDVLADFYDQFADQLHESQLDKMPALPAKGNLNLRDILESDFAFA
T3 sequence (P00582 324-928): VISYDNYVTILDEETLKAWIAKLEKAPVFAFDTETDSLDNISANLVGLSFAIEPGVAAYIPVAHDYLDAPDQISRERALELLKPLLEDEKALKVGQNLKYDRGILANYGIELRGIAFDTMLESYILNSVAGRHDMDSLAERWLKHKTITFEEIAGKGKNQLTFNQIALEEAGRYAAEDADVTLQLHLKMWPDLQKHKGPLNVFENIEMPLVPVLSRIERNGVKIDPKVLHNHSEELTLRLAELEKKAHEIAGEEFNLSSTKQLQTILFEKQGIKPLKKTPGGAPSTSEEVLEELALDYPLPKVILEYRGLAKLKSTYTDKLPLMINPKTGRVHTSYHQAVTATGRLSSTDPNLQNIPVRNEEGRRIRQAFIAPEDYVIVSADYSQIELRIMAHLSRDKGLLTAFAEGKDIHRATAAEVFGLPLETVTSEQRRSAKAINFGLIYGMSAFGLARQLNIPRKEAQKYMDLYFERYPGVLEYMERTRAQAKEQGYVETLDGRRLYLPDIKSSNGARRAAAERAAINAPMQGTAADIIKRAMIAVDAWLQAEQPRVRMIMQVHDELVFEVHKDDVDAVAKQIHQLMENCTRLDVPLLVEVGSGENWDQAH

Row | SMILES | efficiency (Vmax/Km) ([1]; N′ = A) | Vmax ([1]; N′ = A, SD in parentheses) | efficiency (Vmax/Km) ([1]; N′ = C) | Vmax ([1]; N′ = C, SD in parentheses) | efficiency (Vmax/Km) ([1]; N′ = T) | Vmax ([1]; N′ = T, SD in parentheses) | efficiency (Vmax/Km) ([1]; N′ = y) | Vmax ([1]; N′ = y, SD in parentheses) | incorporation efficiency of the substrate y into RNA (transcription efficiency) [2] | transcription efficiency, two y substrates incorporated into RNA [2] | replication with two adjacent unnatural bases in template (35-mer product) [3] | also measured
1 | Nc1nc(-c2cccs2)c2[nH]cnc2n1 [s, 2-amino-6-thienylpurine, reference compound] | 3.0 × 10^3 % min^−1M^−1 | 0.26(0.06) % min^−1 | 2.5 × 10^4 % min^−1M^−1 | 15(5) % min^−1 | 9.4 × 10^3 % min^−1M^−1 | 3.0(0.3) % min^−1 | 3.6×10^4 % min^−1M^−1 | 9.4(2.5) % min^−1 | 50-60% | no RNA incorporating two y was obtained | little 35-mer product was obtained; also recorded: little incorporation of y | Km ([1]; N′ = A, SD in parentheses): 86 µM; Km ([1]; N′ = C, SD in parentheses): 590 µM; Km ([1]; N′ = T, SD in parentheses): 320 µM; Km ([1]; nucleoside triphosphate N′ = y, standard deviation in parentheses): 260 µM
2 | Nc1nc(-c2nccs2)c2[nH]cnc2n1 [v, 2-amino-6-(2-thiazolyl)purine] | 3.3 × 10^3 % min^−1M^−1 | 0.36(0.08) % min^−1 | 4.1×10^4 % min^−1M^−1 | 22(5) % min^−1 | 5.1×10^3 % min^−1M^−1 | 2.0(0.7) % min^−1 | 1.4×10^5 % min^−1M^−1 | 40(21) % min^−1 | 96% | about 30% | allows replication to proceed | incorporation efficiency of y opposite v relative to y opposite s ([1]; ratio of Vmax/Km): about 4 fold; incorporation efficiency of y opposite v relative to C incorporation ([1]; selectivity, ratio of Vmax/Km): about 3 fold; incorporation efficiency of y opposite v relative to T incorporation ([1]; selectivity, ratio of Vmax/Km): ≥ 20 fold; replication efficiency in elongation reaction (35-mer band intensity) ([3]; G and y, one unnatural base in template (NN=vT vs NN=sT)): higher replication efficiency than the s-y base pair; incorporation selectivity opposite y ([4]; compared with s): comparable to the selectivity of s; incorporation of C opposite the template base [4, 5]: also incorporated although in a small amount; incorporation of y at the site corresponding to the template base [4, 5]: selectively incorporated
